As a reminder, the Papp A→B is how fast a substance crosses the layer from the apical side. High values mean ready permeation, low ones poor permeation. Usually inhibition stands for the percentage by which the read-out fell short of the control.

Series [1] is described as follows: MDR1-MDCK monolayer permeability assay. The class given is in vitro ADME. Particulars: dog. As for the experimental part:
We characterized the in vitro ADME properties of 8a in preparation for evaluation of this compound in our primary in vivo model in gerbils. […] We were pleased to find that 8a was able to kill 100% of both male and female worms in the gerbil peritoneum when dosed subcutaneously at 100 mg/kg/day for 14 days as a suspension in a nonsolubilizing HEC/Tween vehicle. […] The subsequent assessment of the pharmacokinetics of 8a from these two dosing paradigms provided an interesting observation that we believe to be important in understanding the PK–PD requirements for achieving efficacy in this animal model. […] We had made the same observation in a positive control group using flubendazole at a subcutaneous dose of 10 mg/kg/day for 5 days in the nonsolubilizing HEC/Tween vehicle, namely, that plasma levels of flubendazole were maintained above the in vitro IC50 (4 nM) for over 42 days, consistent with data reported in the literature.[43] […] We next examined 8a in two additional in vivo models, the first where L3 B. pahangi larvae were injected into the peritoneum of gerbils and allowed to develop into adult worms[45] and a second where gerbils were naturally infected by the filarial nematode Litomosoides sigmodontis.[46],[47] In both of these models, 8a was administered subcutaneously at 100 mg/kg for 14 days or orally at 100 mg/kg for 28 days as a suspension. […] Additionally, when plasma obtained from treated animals at necropsy was analyzed for 8a, we observed an outcome similar to that observed in the adult implantation model, e.g., that measurable levels were present at this time point in the subcutaneous-dosed groups but not in the orally dosed groups, weeks after administration of the drug. In a final L. sigmodontis experiment with 8a, we dosed the compound subcutaneously at 300 mg/kg for 7 days as a suspension.

Series [2] relates to Onchocerca volvulus L3 larvae. Briefly: Onchocerca volvulus L3 larval molting assay. The class given is cell-based. The note with it: O. volvulus, 1 μM. As for the experimental part: (§1) The first three analogs from the benzimidazole 5-carboxylic acid, namely 7a (from 6-aminobenzoxaborole), 8a (from 6-aminomethyl-3,3-dimethylbenzoxaborole), and 8b (from 3-aminomethylbenzoxaborole), were prepared and tested in an Onchocerca volvulus L3 larval molting assay[34],[35] and a mammalian G2/M arrest assay[36] to evaluate antifilarial activity and selectivity, respectively (Table 1). O. volvulus is the causative agent of river blindness, and the L3 molting assay is the only widely available and reproducible assay of this filariid, the target of novel macrofilaricidal drugs.[34],[35] Other animal models (e.g., Brugia in gerbils) recapitulate aspects of lymphatic filariasis and are also used as surrogate screens for O. volvulus infections. Of the three compounds tested, 8a emerged as the most attractive compound on the basis of potency and selectivity.
Plates were incubated at 37 °C in a 5% CO2 incubator for 6 days, then molting was assessed visually using an inverted microscope. Molting was determined in each well by counting the presence of fourth stage larvae (L4s) and empty casts of L3s.
The percent inhibition of molting was calculated based on the number of treated larvae that were able to molt in comparison to the number of control larvae that had successfully molted. IC50 values were calculated using GraphPad Prism v6.0
(http://www.graphpad.com). See Bullman et al., PLoS Negl. Trop.
Adult Brugia malayi transplantation in vivo model procedure.
Gerbils (Meriones unguiculatus) were infected by transplantation of 10 male and 10 female adult Brugia malayi into the peritoneal cavity. Gerbils were acclimated for 7 days prior to treatment. Animals were dosed based on their body weight prior to each dosing. Animals were administered their doses at the same time each day and receive standard rodent laboratory diet and water ad libitum. Gerbils were humanely euthanized at the conclusion of each study. Peritoneal counts of male and female adult B. malayi and visual condition of the peritoneum were recorded.
Brugia pahangi L3 injection in vivo model procedure 8.
Male gerbils (Meriones unguiculatus) approximately 6 weeks of age (50-60 g) were purchased from Charles Rivers (USA, Kingston K62 Gerbils) and infected by intraperitoneal injection with 200 Brugia pahangi third-stage larvae (L3) per animal
(Filariatech, Inc., Athens, GA). Gerbils were housed with no more than 5 animals per cage and maintained 9 months prior to treatment. All gerbils were dosed in accordance with their body weight determined prior to each dosing. Animals were […]

Series [3] has as its system G2/M arrest (functional indicator of interaction with mammalian tubulin). Briefly: mammalian G2/M arrest assay. The class given is cell-based. Particulars: Table 3; read-out: G2/M IC50. As for the experimental part: as §1
Similarly, changing the point of attachment on the benzoxaborole core from 6- to 5- to afford 8d was also accompanied by increased potency in both the O. volvulus and G2/M arrest assays.

For `COC(=O)Nc1nc2c(F)c(C(=O)NCc3ccc4c(c3)B(O)OC4(C)C)ccc2[nH]1` [8i], the Papp A→B in series [1] was 2.35 ×10⁻⁶ cm/s. For the same compound, in series [2], at 1 µM the inhibition was 0%. Further, the IC50 in series [3] came to 16 µM.

Take `COC(=O)Nc1nc2cc(C(=O)NCc3ccc4c(c3)B(O)OC4(C)C)ccc2n1C` [8e]: the Papp A→B in series [1] stood at 1.2 ×10⁻⁶ cm/s. The compound also came in with an inhibition at 1 µM in series [2] of 24%. In series [3], the IC50 is more than 100 µM.

In series [1], `COC(=O)Nc1nc2ccc(C(=O)N(C)Cc3ccc4c(c3)B(O)OC4(C)C)cc2[nH]1` [8g] displayed a Papp A→B of 0.6 ×10⁻⁶ cm/s. Besides, in series [3], the IC50 is 4.1 µM.

Consider `COC(=O)Nc1nc2ccc(C(=O)NCc3ccc4c(c3)B(O)OC4(C)C)cc2n1C` [8f], for which the Papp A→B in series [1] was 1.8 ×10⁻⁶ cm/s. This compound also registered an inhibition at 1 µM in series [2] of 29%. Also, the IC50 in series [3] is more than 100 µM.

In the case of `COC(=O)Nc1nc2ccc(C(=O)N(CCN(C)C)Cc3ccc4c(c3)B(O)OC4(C)C)cc2[nH]1` [8h], the Papp A→B in series [1] is 0.14 ×10⁻⁶ cm/s. Also, the IC50 in series [3] came out at 35 µM.
